Assay results from publication PMC6811774, “Potent, selective, and subunit‐dependent activation of TRPC5 channels by a xanthine derivative” (British Journal of Pharmacology, 2019).

How the values were obtained:
TRPC4 channels = biological target: T1, TRPC4 channels (Homo sapiens, UniProt Q9UBN4); experiment: Excised outside-out patch-clamp, HEK 293 cells transiently expressing hTRPC4; assay type: cell-based; conditions: 30 nM EA; at 3 to 100 nM AM237
T1 construct: expressed in transfected cells; host or cells: HEK 293 (transient)
T1 sequence (Q9UBN4 1-977): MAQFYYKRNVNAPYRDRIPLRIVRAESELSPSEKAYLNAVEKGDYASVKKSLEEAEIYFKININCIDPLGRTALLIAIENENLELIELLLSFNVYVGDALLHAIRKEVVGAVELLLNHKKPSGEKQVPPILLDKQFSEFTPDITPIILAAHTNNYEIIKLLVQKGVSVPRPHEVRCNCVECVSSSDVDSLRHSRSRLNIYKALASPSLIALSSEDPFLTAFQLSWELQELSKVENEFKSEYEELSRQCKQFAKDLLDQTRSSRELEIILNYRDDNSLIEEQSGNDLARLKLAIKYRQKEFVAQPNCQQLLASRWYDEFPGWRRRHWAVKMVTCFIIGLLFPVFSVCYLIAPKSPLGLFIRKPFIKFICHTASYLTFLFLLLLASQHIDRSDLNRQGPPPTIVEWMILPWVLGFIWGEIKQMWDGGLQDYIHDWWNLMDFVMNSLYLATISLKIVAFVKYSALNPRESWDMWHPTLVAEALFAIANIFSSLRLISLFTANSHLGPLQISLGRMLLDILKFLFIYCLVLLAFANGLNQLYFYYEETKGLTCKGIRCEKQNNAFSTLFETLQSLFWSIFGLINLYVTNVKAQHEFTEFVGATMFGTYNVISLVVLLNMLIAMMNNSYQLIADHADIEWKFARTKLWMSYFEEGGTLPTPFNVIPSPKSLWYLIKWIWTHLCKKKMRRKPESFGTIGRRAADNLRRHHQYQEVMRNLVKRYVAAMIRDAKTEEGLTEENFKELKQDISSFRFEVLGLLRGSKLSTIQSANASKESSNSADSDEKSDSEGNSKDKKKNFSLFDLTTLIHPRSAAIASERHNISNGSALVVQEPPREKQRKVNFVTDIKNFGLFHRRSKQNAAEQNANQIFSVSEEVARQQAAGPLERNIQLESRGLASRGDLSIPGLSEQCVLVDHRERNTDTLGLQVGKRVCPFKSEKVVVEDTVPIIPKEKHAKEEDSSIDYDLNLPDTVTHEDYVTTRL
Protocol: For electrophysiology experiments, cells were plated at a low density of 20–30% onto round or square glass coverslips (13 mm diameter or 5 × 5 mm), and TRPC expression in HEK T‐REx was induced with 1 μg·ml^−1 tetracycline 24 hr before experimentation. Experiments were carried out at room temperature. Extracellular solution consisted of SBS. Patch‐clamp recordings were performed in whole‐cell mode (Figure S7) and in excised outside‐out patch mode under voltage clamp at room temperature using 2–4 MΩ patch pipettes fabricated from borosilicate glass capillaries with an outside diameter of 1 mm and an inside diameter of 0.58 mm (Harvard Apparatus). The voltage protocol comprised voltage ramps applied from −100 to +100 mV every 10 s from a holding potential of 0 mV. The patch‐clamp currents were recorded using Axopatch 200B or HEKA EPC‐800 amplifiers, digitized by a Digidata 1440 or PCI6229 (National Instruments Japan, Tokyo, Japan) and recorded to a computer using pCLAMP10 (Molecular Devices) or WinWCPV4.5 (developed by Dr John Dempster, University of Strathclyde, UK). The data were filtered at 1 kHz and analysed offline using Clampfit 10.2 software or WinWCPV4.5 and Origin 9.1 software (OriginLab, Northampton, MA). […]

TRPV4 = biological target: T2, TRPV4 (Homo sapiens, UniProt Q9HBA0); experiment: [Ca2+]i selectivity assay, CHO cells stably expressing hTRPV4, 4α-PDD activation; assay type: cell-based; conditions: 300 nM AM237; 5 μM 4α-PDD
T2 construct: expressed in transfected cells

wild-type HEK 293 cells = experiment: [Ca2+]i measurement in wild-type HEK 293 cells; assay type: cell-based, human; conditions: 0.3–300 nM
Protocol: Intracellular concentration of Ca^2+ ([Ca^2+]i) recordings were carried out using the ratiometric Ca^2+ dye Fura‐2; 24 hr before experiments, cells were plated onto black, clear bottom poly‐D‐lysine coated 96‐well plates, and for T‐REx cells, TRPM2 or TRPC1/4/5 protein expression was induced with 1 μg·ml^−1 tetracycline at this point. All cells were used at 90% confluence. To load cells with the Fura‐2 dye, media was removed and cells were incubated with standard bath solution (SBS; composition, in mM, NaCl 130, KCl 5, glucose 8, HEPES 10, MgCl2 1.2, and CaCl2 1.5) containing 2‐μM Fura‐2 acetoxymethyl ester (Fura‐2 AM) and 0.01% pluronic acid for 1 hr at 37°C. For CHO cells stably expressing TRPV4 protein, probenecid (final concentration 2.5 mM) was present in all buffers used from the point of Fura‐2 AM application. After this incubation, cells were washed with fresh SBS and incubated at room temperature for a further 30 min. SBS was then changed to recording buffer (SBS with 0.01% pluronic acid and 0.1% DMSO to match compound buffer) immediately prior to experimentation. In the case of inhibitor studies, cells were washed twice with fresh SBS after incubation with Fura‐2 AM, followed by the addition of SBS with 0.01% pluronic acid and the relevant inhibitor or vehicle. Cells were then incubated for 30 min prior to the experiment. […]

T2 sequence (Q9HBA0 whole entry): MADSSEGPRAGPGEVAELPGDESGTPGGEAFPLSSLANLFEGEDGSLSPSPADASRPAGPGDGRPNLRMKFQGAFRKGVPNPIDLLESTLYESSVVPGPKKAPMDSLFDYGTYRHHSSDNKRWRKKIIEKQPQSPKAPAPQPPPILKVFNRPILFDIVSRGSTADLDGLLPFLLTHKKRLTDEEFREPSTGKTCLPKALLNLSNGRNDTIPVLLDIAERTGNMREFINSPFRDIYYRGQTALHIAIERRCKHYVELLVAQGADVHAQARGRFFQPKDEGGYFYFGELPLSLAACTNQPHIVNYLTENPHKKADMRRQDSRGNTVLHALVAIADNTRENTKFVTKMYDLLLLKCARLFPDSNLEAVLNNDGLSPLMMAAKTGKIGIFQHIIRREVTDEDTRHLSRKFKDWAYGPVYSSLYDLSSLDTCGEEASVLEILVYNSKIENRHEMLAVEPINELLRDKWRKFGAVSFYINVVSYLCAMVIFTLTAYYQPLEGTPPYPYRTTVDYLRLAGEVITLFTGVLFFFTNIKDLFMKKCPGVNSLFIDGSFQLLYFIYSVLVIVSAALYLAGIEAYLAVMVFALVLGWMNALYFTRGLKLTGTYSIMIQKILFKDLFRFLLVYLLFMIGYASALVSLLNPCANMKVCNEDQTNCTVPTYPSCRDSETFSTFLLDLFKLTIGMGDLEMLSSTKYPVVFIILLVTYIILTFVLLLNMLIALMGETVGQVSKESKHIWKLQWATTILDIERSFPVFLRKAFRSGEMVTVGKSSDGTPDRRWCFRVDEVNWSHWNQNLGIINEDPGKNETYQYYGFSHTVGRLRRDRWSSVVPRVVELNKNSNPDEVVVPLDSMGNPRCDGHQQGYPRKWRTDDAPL

## Cn1c(=O)n(CCCO)c(=O)c2c1nc(Oc1ccc(Cl)c(OC(F)(F)F)c1)n2Cc1ccc(Cl)cc1 [AM237]
TRPC4 channels
  Inhibition of currents induced by EA: full inhibition
TRPV4
  Activation or inhibition of TRPV4: no activation or inhibition
wild-type HEK 293 cells
  Effect on [Ca2+]i in wild-type HEK 293 cells: did not increase
